Patent US20230085307A1, “PYRIDAZINONE COMPOUND AND HERBICIDE” (NISSAN CHEMICAL CORPORATION, priority 2019, published 2023)

Experiments:
[1] = system: blackgrass; assay: Test Example 5: herbicidal effect by foliage application, plastic box (Table 20, symbol J); type: in vivo, blackgrass (Alopecurus myosuroides)
Outline: (§1)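 Post-emergence foliar test in sterilized diluvial soil. Compound applied as water-diluted emulsion at a predetermined rate to 14-day-old plants; evaluation at three weeks.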

[2] = system: wild oat; assay: Test Example 4: herbicidal effect by soil treatment (Table 19, symbol I); type: in vivo, wild oat (Avena fatua); settings: amount of applied herbicide 320 g/ha
Outline: (§2)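 Scoring uses the grading scale of an earlier test, three weeks post-application. Treatment consists of spraying a diluted emulsion formulation across the surface of sterilized diluvial soil in which seeds are buried near 1.5 cm deep; boxes are kept in a greenhouse between 25° C. and 30° C.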

[3] = system: lambsquarters; assay: Test Example 5: herbicidal effect by foliage application, plastic box (Table 20, symbol O); type: in vivo, lambsquarters (Chenopodium album)
Outline: as §1

[4] = system: persian speedwell; assay: Test Example 4: herbicidal effect by soil treatment (Table 19, symbol R); type: in vivo, Persian speedwell (Veronica persica); settings: amount of applied herbicide 320 g/ha
Outline: as §2

[5] = system: barnyard grass; assay: Test Example 3: herbicidal effect by foliage application, Wagner pot (Table 18, symbol H); type: in vivo, barnyard grass (Echinochloa crus-galli); settings: 320 g/ha
Outline: (§3)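 Plants were sown in alluvial soil held under 0.1–0.5 cm standing water and grown 14 days in a greenhouse at 25–30 °C. An emulsifiable formulation, water-diluted to the set dose, was then sprayed onto the foliage, and effects were scored three weeks later using previously defined criteria.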

[6] = system: windgrass; assay: Test Example 4: herbicidal effect by soil treatment (Table 19, symbol L); type: in vivo, windgrass (Apera spica-venti); settings: amount of applied herbicide 320 g/ha
Outline: as §2

[7] = system: redroot pigweed; assay: Test Example 5: herbicidal effect by foliage application, plastic box (Table 20, symbol N); type: in vivo, redroot pigweed (Amaranthus retroflexus)
Outline: as §1

[8] = system: chickweed; assay: Test Example 4: herbicidal effect by soil treatment (Table 19, symbol P); type: in vivo, common chickweed (Stellaria media); settings: amount of applied herbicide 320 g/ha
Outline: as §2

[9] = system: Italian ryegrass; assay: Test Example 5: herbicidal effect by foliage application, plastic box (Table 20, symbol K); type: in vivo, Italian ryegrass (Lolium multiflorum)
Outline: as §1

[10] = system: rice flat sedge; assay: Test Example 3: herbicidal effect by foliage application, Wagner pot (Table 18, symbol E); type: in vivo, rice flat sedge (Cyperus iria); settings: 320 g/ha
Outline: as §3

[11] = system: velvetleaf; assay: Test Example 5: herbicidal effect by foliage application, plastic box (Table 20, symbol M); type: in vivo, velvetleaf (Abutilon theophrasti)
Outline: as §1

[12] = system: barnyard grass; assay: Test Example 4: herbicidal effect by soil treatment (Table 19, symbol H); type: in vivo, barnyard grass (Echinochloa crus-galli); settings: amount of applied herbicide 320 g/ha
Outline: as §2

[13] = system: redroot pigweed; assay: Test Example 4: herbicidal effect by soil treatment (Table 19, symbol N); type: in vivo, redroot pigweed (Amaranthus retroflexus); settings: amount of applied herbicide 320 g/ha
Outline: as §2

[14] = system: blackgrass; assay: Test Example 4: herbicidal effect by soil treatment (Table 19, symbol J); type: in vivo, blackgrass (Alopecurus myosuroides); settings: amount of applied herbicide 320 g/ha
Outline: as §2

[15] = system: persian speedwell; assay: Test Example 5: herbicidal effect by foliage application, plastic box (Table 20, symbol R); type: in vivo, Persian speedwell (Veronica persica)
Outline: as §1

[16] = system: Chinese sprangletop; assay: Test Example 3: herbicidal effect by foliage application, Wagner pot (Table 18, symbol D); type: in vivo, chinese sprangletop (Leptochloa chinensis); settings: 320 g/ha
Outline: as §3

[17] = system: green foxtail; assay: Test Example 5: herbicidal effect by foliage application, plastic box (Table 20, symbol G); type: in vivo, green foxtail (Setaria viridis)
Outline: as §1

[18] = system: Japanese bulrush; assay: Test Example 1: herbicidal activity, application before weed generation under submerged conditions (Table 16, symbol B); type: in vivo, Japanese bulrush (Schoenoplectus juncoides); settings: amount of applied herbicide 320 g/ha
Text: (§4) [Test Example 1] Herbicidal Activity Test by Application before Weed Generation under Submerged Conditions After alluvial soil was placed into 1/10000 are of Wagner pot, water was poured and mixed to form a submerged condition having a water depth of 4 cm. Seeds of late watergrass, Japanese bulrush, and oval-leafed pondweed were sowed in a mixed manner in the aforementioned pot, and then 2.5 leaf stage rice plant seedlings were transplanted thereto. On the day of sowing seeds, the emulsion agent of the compound of the present invention prepared according to Formulation Example 2 was diluted with water so as to achieve a predetermined herbicide amount, and the diluted emulsion agent was applied to the surface of the water. The pot was placed in a greenhouse at 25° C. to 30° C. for growth of the plants. Three weeks after the herbicide application, the effect of the herbicide on each plant was evaluated according to the following criteria. Evaluation Criteria 5: Herbicidal rate of 90% or more (almost completely withered) 4: Herbicidal rate of 70% or more and less than 90% 3: Herbicidal rate of 40% or more and less than 70% 2: Herbicidal rate of 20% or more and less than 40% 1: Herbicidal rate of 5% or more and less than 20% 0: Herbicidal rate of 5% or less (almost no effect)

[19] = system: wild oat; assay: Test Example 5: herbicidal effect by foliage application, plastic box (Table 20, symbol I); type: in vivo, wild oat (Avena fatua)
Outline: as §1

[20] = system: barnyard grass; assay: Test Example 5: herbicidal effect by foliage application, plastic box (Table 20, symbol H); type: in vivo, barnyard grass (Echinochloa crus-galli)
Outline: as §1

[21] = system: southern crabgrass; assay: Test Example 5: herbicidal effect by foliage application, plastic box (Table 20, symbol F); type: in vivo, southern crabgrass (Digitaria ciliaris)
Outline: as §1

[22] = system: southern crabgrass; assay: Test Example 4: herbicidal effect by soil treatment (Table 19, symbol F); type: in vivo, southern crabgrass (Digitaria ciliaris); settings: amount of applied herbicide 320 g/ha
Outline: as §2

[23] = system: green foxtail; assay: Test Example 4: herbicidal effect by soil treatment (Table 19, symbol G); type: in vivo, green foxtail (Setaria viridis); settings: amount of applied herbicide 320 g/ha
Outline: as §2

[24] = system: late watergrass; assay: Test Example 1: herbicidal activity, application before weed generation under submerged conditions (Table 16, symbol A); type: in vivo, late watergrass (Echinochloa oryzicola); settings: amount of applied herbicide 320 g/ha
Text: as §4

[25] = system: Italian ryegrass; assay: Test Example 4: herbicidal effect by soil treatment (Table 19, symbol K); type: in vivo, Italian ryegrass (Lolium multiflorum); settings: amount of applied herbicide 320 g/ha
Outline: as §2

[26] = system: windgrass; assay: Test Example 5: herbicidal effect by foliage application, plastic box (Table 20, symbol L); type: in vivo, windgrass (Apera spica-venti)
Outline: as §1

[27] = system: chickweed; assay: Test Example 5: herbicidal effect by foliage application, plastic box (Table 20, symbol P); type: in vivo, common chickweed (Stellaria media)
Outline: as §1

[28] = system: velvetleaf; assay: Test Example 4: herbicidal effect by soil treatment (Table 19, symbol M); type: in vivo, velvetleaf (Abutilon theophrasti); settings: amount of applied herbicide 320 g/ha
Outline: as §2

[29] = system: lambsquarters; assay: Test Example 4: herbicidal effect by soil treatment (Table 19, symbol O); type: in vivo, lambsquarters (Chenopodium album); settings: amount of applied herbicide 320 g/ha
Outline: as §2

[30] = foliage application, 320 g/ha, three weeks after application
[31] = amount of applied herbicide 320 g/ha, foliage application after 14-day growth, evaluated three weeks after application

COc1ccccc1-c1sc2cc(OS(=O)(=O)N(C)C)ccc2c1-c1c(O)c(C)nn(C)c1=O [3-134]
J: blackgrass, herbicidal effect grade [1, 30]: 4 (Herbicidal rate of 70% or more and less than 90%)
Herbicidal effect by soil treatment, I: wild oat [2]: 0 (Herbicidal rate of 5% or less (almost no effect))
O: lambsquarters, herbicidal effect grade [3, 30]: 3 (Herbicidal rate of 40% or more and less than 70%)
Herbicidal effect by soil treatment, R: persian speedwell [4]: 3 (Herbicidal rate of 40% or more and less than 70%)
herbicidal effect on barnyard grass (H) [5]: 3 (Herbicidal rate of 40% or more and less than 70%)
Herbicidal effect by soil treatment, L: windgrass [6]: 5 (Herbicidal rate of 90% or more (almost completely withered))
N: redroot pigweed, herbicidal effect grade [7, 30]: 4 (Herbicidal rate of 70% or more and less than 90%)
Herbicidal effect by soil treatment, P: chickweed [8]: 1 (Herbicidal rate of 5% or more and less than 20%)
K: Italian ryegrass, herbicidal effect grade [9, 30]: 4 (Herbicidal rate of 70% or more and less than 90%)
herbicidal effect on rice flat sedge (E) [10]: 3 (Herbicidal rate of 40% or more and less than 70%)
M: velvetleaf, herbicidal effect grade [11, 30]: 3 (Herbicidal rate of 40% or more and less than 70%)
Herbicidal effect by soil treatment, H: barnyard grass [12]: 0 (Herbicidal rate of 5% or less (almost no effect))
Herbicidal effect by soil treatment, N: redroot pigweed [13]: 5 (Herbicidal rate of 90% or more (almost completely withered))
Herbicidal effect by soil treatment, J: blackgrass [14]: 4 (Herbicidal rate of 70% or more and less than 90%)
R: persian speedwell, herbicidal effect grade [15, 30]: 5 (Herbicidal rate of 90% or more (almost completely withered))
herbicidal effect on Chinese sprangletop (D) [16]: 4 (Herbicidal rate of 70% or more and less than 90%)
G: green foxtail, herbicidal effect grade [17, 30]: 3 (Herbicidal rate of 40% or more and less than 70%)
Herbicidal effect, B: Japanese bulrush [18]: 4 (Herbicidal rate of 70% or more and less than 90%)
I: wild oat, herbicidal effect grade [19, 30]: 2 (Herbicidal rate of 20% or more and less than 40%)
H: barnyard grass, herbicidal effect grade [20, 30]: 0 (Herbicidal rate of 5% or less (almost no effect))
F: southern crabgrass, herbicidal effect grade [21, 30]: 4 (Herbicidal rate of 70% or more and less than 90%)
Herbicidal effect by soil treatment, F: southern crabgrass [22]: 0 (Herbicidal rate of 5% or less (almost no effect))
Herbicidal effect by soil treatment, G: green foxtail [23]: 0 (Herbicidal rate of 5% or less (almost no effect))
Herbicidal effect, A: late watergrass [24]: 3 (Herbicidal rate of 40% or more and less than 70%)
Herbicidal effect by soil treatment, K: Italian ryegrass [25]: 4 (Herbicidal rate of 70% or more and less than 90%)
L: windgrass, herbicidal effect grade [26, 30]: 5 (Herbicidal rate of 90% or more (almost completely withered))
P: chickweed, herbicidal effect grade [27, 30]: 5 (Herbicidal rate of 90% or more (almost completely withered))
Herbicidal effect by soil treatment, M: velvetleaf [28]: 1 (Herbicidal rate of 5% or more and less than 20%)
Herbicidal effect by soil treatment, O: lambsquarters [29]: 3 (Herbicidal rate of 40% or more and less than 70%)

Cc1nn(C)c(=O)c(-c2c(-c3ccc4c(c3)OCO4)sc3cc(F)c(F)cc23)c1O [5-035]
Herbicidal effect by foliage application, J: blackgrass [1, 31]: 0 (Herbicidal rate of 5% or less (almost no effect))
I: wild oat, herbicidal effect grade [2]: 0 (Herbicidal rate of 5% or less (almost no effect))
Herbicidal effect by foliage application, O: lambsquarters [3, 31]: 5 (Herbicidal rate of 90% or more (almost completely withered))
R: persian speedwell, herbicidal effect grade [4]: 5 (Herbicidal rate of 90% or more (almost completely withered))
herbicidal effect on barnyard grass (H) [5]: 4 (Herbicidal rate of 70% or more and less than 90%)
L: windgrass, herbicidal effect grade [6]: 0 (Herbicidal rate of 5% or less (almost no effect))
Herbicidal effect by foliage application, N: redroot pigweed [7, 31]: 5 (Herbicidal rate of 90% or more (almost completely withered))
P: chickweed, herbicidal effect grade [8]: 1 (Herbicidal rate of 5% or more and less than 20%)
Herbicidal effect by foliage application, K: Italian ryegrass [9, 31]: 0 (Herbicidal rate of 5% or less (almost no effect))
herbicidal effect on rice flat sedge (E) [10]: 3 (Herbicidal rate of 40% or more and less than 70%)
Herbicidal effect by foliage application, M: velvetleaf [11, 31]: 5 (Herbicidal rate of 90% or more (almost completely withered))
H: barnyard grass, herbicidal effect grade [12]: 3 (Herbicidal rate of 40% or more and less than 70%)
N: redroot pigweed, herbicidal effect grade [13]: 1 (Herbicidal rate of 5% or more and less than 20%)
J: blackgrass, herbicidal effect grade [14]: 0 (Herbicidal rate of 5% or less (almost no effect))
Herbicidal effect by foliage application, R: persian speedwell [15, 31]: 5 (Herbicidal rate of 90% or more (almost completely withered))
herbicidal effect on Chinese sprangletop (D) [16]: 3 (Herbicidal rate of 40% or more and less than 70%)
Herbicidal effect by foliage application, G: green foxtail [17, 31]: 0 (Herbicidal rate of 5% or less (almost no effect))
Herbicidal effect by foliage application, I: wild oat [19, 31]: 0 (Herbicidal rate of 5% or less (almost no effect))
Herbicidal effect by foliage application, H: barnyard grass [20, 31]: 2 (Herbicidal rate of 20% or more and less than 40%)
Herbicidal effect by foliage application, F: southern crabgrass [21, 31]: 1 (Herbicidal rate of 5% or more and less than 20%)
F: southern crabgrass, herbicidal effect grade [22]: 1 (Herbicidal rate of 5% or more and less than 20%)
G: green foxtail, herbicidal effect grade [23]: 2 (Herbicidal rate of 20% or more and less than 40%)
K: Italian ryegrass, herbicidal effect grade [25]: 0 (Herbicidal rate of 5% or less (almost no effect))
Herbicidal effect by foliage application, L: windgrass [26, 31]: 5 (Herbicidal rate of 90% or more (almost completely withered))
Herbicidal effect by foliage application, P: chickweed [27, 31]: 5 (Herbicidal rate of 90% or more (almost completely withered))
M: velvetleaf, herbicidal effect grade [28]: 0 (Herbicidal rate of 5% or less (almost no effect))
O: lambsquarters, herbicidal effect grade [29]: 3 (Herbicidal rate of 40% or more and less than 70%)
